Laboratory results reported in patent publication US10729680B2, “5-substituted 2-(morpholin-4-yl)-1,7-naphthyridines” (BAYER PHARMA AKTIENGESELLSCHAFT, priority 2016, dated 2020).

Key:
[1] = system: HeLa cells; test: Proliferation assay (HeLa, crystal violet); format: cell-based; details: Homo sapiens, 96 h, 4 days incubation, crystal violet staining, read-out: Inhibition of HeLa cell proliferation
Experimental: Human tumour cells were originally obtained from the American Type Culture Collection (ATCC), the Deutsche Sammlung von Mikroorganismen und Zellkulturen (DSMZ, German Collection of Microorganisms and Cell Cultures) or Epo GmbH, Berlin.
Adherently growing cells (HeLa, HeLa-MaTu-ADR, HT-144, Lovo, HT-29, NCI-H460, DU145, Caco2, B16F10) were plated out in a density of 1500-4000 cells/measurement point, depending on the rate of growth of the cell line, in a 96-well multititre plate in 200 μl of growth medium (DMEM/HAMS F12, 2 mM L-glutamine, 10% foetal calf serum). After 24 hours, the cells of one plate (zero plate) were dyed with crystal violet (see below), whereas the medium of the other plates was replaced with fresh culture medium (200 μl) to which the test substances were added in various concentrations (0 μM, and also in the range of 0.001-10 μM; the final concentration of the solvent dimethyl sulphoxide was 0.1 or 0.5%). The cells were incubated for 4 days in the presence of the test substances. Cell proliferation was determined by staining the cells with crystal violet: the cells were fixed at room temperature for 15 min by adding 20 μl/measurement point of an 11% strength glutaraldehyde solution. After washing the fixed cells three times with water, the plates were dried at room temperature. The cells were stained by adding 100 μl/measurement point of a 0.1% strength crystal violet solution (pH adjusted to pH 3 by adding acetic acid). After washing the cells three times with water, the plates were dried at room temperature. The dye was dissolved by adding 100 μl/measurement point of a 10% strength acetic acid solution. Absorbance was determined photometrically at a wavelength of 595 nm. The percentage change in cell growth was calculated by normalizing the measured values to the absorbance values of the zero plate (=0%) and the absorbance of the untreated (0 μM) cells (=100%). The IC50 values were determined by means of a four parameter fit.
Inhibition of proliferation of HeLa cells by compounds according to the present invention, determined as described above. All IC50 (inhibitory concentration at 50% of maximal effect) values are indicated in M, “n.t.” means that the compounds have not been tested in the respective assay.

[2] = target: full-length human ATR protein (ATR/ATRIP) (Homo sapiens (Human), UniProt Q13535); test: Binding Assay ATR (TR-FRET, tracer A displacement); details: displacement of fluorescent tracer A from GST-ATR/ATRIP
Chain of full-length human ATR protein (ATR/ATRIP) (Q13535 other isoform, or with tags, fused parts or gaps): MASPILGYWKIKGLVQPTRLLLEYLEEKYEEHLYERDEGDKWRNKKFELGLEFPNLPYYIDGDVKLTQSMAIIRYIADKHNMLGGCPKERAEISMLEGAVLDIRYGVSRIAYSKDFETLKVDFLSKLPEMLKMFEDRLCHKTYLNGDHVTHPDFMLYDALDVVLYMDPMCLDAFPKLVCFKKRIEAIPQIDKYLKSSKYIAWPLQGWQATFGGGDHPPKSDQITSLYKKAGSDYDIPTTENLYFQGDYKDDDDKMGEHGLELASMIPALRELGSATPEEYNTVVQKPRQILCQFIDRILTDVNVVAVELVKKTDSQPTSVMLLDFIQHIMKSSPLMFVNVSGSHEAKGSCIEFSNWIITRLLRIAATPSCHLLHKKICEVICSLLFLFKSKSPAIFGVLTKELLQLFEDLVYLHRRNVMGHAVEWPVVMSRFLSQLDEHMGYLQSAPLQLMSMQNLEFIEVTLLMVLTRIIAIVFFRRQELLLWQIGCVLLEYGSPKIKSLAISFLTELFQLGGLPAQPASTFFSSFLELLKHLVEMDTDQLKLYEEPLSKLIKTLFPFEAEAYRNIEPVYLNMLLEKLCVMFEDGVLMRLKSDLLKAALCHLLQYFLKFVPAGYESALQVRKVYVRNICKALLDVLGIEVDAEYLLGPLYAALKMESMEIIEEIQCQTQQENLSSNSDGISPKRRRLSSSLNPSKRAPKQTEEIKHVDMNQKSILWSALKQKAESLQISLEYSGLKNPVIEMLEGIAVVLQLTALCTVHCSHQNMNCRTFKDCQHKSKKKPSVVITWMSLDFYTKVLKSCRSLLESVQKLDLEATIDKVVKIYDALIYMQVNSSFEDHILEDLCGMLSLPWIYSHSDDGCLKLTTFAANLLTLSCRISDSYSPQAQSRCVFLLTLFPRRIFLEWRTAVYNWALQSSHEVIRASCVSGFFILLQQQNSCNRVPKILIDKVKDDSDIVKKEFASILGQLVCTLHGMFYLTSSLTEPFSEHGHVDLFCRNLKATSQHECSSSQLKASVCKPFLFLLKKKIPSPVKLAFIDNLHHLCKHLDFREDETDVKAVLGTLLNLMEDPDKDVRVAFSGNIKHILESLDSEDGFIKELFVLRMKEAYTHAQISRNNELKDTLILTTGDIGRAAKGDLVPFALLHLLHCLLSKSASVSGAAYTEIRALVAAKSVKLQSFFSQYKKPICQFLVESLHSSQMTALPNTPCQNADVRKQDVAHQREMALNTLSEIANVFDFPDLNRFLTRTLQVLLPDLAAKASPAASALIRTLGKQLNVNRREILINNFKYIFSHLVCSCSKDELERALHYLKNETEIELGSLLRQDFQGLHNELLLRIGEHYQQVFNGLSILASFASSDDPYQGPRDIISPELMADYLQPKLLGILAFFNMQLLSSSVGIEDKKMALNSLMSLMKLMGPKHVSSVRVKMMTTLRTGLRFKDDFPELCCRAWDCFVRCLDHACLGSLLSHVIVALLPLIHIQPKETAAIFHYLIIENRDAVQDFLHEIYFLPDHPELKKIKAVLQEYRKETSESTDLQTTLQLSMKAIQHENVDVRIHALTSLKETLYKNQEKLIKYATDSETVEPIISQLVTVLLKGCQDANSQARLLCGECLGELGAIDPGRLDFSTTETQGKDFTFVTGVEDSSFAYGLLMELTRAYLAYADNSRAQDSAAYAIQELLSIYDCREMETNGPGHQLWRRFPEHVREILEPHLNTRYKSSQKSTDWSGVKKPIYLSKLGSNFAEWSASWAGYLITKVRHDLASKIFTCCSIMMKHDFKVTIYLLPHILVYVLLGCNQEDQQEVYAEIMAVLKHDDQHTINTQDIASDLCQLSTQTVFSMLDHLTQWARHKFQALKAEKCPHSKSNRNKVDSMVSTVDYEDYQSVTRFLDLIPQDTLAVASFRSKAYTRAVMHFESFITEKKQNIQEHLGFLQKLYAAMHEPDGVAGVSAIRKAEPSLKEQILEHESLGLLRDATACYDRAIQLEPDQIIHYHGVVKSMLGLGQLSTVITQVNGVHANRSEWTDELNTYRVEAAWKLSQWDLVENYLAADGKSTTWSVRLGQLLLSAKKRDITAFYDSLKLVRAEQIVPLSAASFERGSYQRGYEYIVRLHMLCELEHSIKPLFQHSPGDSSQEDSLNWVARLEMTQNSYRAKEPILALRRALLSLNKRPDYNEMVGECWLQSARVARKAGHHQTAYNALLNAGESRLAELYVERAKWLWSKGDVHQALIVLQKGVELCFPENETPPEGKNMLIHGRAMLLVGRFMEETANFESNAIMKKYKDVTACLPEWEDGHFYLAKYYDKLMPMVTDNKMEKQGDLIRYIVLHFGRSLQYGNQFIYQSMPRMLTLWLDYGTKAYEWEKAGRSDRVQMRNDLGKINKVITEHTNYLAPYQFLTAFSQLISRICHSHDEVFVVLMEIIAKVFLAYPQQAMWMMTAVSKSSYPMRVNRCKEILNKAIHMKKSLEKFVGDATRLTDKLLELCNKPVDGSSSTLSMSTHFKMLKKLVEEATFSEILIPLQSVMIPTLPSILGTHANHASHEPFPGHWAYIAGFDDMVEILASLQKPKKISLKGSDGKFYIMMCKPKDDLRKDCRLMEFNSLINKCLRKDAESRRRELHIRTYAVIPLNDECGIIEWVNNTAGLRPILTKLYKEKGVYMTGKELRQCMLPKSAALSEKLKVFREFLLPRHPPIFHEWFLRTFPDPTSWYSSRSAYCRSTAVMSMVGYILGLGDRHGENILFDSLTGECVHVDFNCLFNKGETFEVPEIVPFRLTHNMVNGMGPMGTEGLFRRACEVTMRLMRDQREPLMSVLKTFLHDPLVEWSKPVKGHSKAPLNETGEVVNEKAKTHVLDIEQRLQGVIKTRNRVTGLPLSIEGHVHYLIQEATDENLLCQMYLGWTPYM
Chain of full-length human ATR protein (ATR/ATRIP) (Q8WXE1 other isoform, or with tags, fused parts or gaps partner): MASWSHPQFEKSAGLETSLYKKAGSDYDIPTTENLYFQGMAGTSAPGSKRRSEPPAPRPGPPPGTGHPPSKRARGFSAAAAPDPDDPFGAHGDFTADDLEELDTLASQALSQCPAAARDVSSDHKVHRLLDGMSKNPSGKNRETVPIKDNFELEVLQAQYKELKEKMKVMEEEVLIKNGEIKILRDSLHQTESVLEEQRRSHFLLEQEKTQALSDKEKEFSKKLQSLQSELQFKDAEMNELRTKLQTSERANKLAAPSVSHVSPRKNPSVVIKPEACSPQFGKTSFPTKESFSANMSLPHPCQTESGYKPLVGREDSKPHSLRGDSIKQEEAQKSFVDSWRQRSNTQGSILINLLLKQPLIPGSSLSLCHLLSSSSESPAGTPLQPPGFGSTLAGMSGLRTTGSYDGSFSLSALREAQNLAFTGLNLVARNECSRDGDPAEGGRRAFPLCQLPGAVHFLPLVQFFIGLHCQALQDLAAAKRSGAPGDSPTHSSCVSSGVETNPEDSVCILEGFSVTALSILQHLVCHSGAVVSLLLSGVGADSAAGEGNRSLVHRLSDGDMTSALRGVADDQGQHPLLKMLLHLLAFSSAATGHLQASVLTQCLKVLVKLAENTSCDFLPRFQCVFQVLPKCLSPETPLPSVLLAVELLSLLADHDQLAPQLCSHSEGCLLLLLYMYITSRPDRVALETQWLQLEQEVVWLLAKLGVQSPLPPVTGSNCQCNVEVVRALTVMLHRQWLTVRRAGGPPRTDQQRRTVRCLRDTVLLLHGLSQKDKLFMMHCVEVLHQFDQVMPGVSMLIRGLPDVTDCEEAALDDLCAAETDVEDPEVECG
Text: To determine of binding activity of the test compounds, full-length human ATR protein was expressed and purified together with ATRIP as described above. Furthermore, a fluorescently labelled compound (tracer A as described above) was used as a tracer molecule. Detection of the binding event of the tracer was achieved by time-resolved fluorescence energy transfer (TR-FRET). We used an anti-GST-Terbium antibody (CisBio) that binds to the GST-tag at the N-terminus of ATR-kinase. Excitation of Terbium with 337 nm light results in emission of fluorescent light with 545 nm. In case a tetrameric complex has formed (antiGST-Tb+GST-ATR+Strp2-ATRIP+tracer), part of the energy will be transferred from the Terbium to the fluorophore that itself emits light of 570 nm. Displacement of the fluorescent tracer by a test compound leads to a reduction of the TR-FRET-signal.
For the assay 50 nl of a 100-fold concentrated solution of the test compound in DMSO was pipetted into a black low volume 384 well microtiter plate (MTP, Greiner Bio-One, Frickenhausen, Germany). To prepare the ATR-working solution, ATR/ATRIP stock solution was diluted in assay buffer [50 mM HEPES (pH 7.0), 10 mM MgCl2, 1 mM DTT, 0.01% (w/v) Igepal, 0.01% (w/v) BSA] to 4.2 nM protein concentration (concentration may vary from lot to lot of protein preparation). AntiGST-Tb antibody was diluted to 4.2 nM. The ATR-working solution was incubated for 30 min at 22° C. prior to dispensing to pre-form the complex of antiGST-Tb+GST-ATR+ATRIP. Then, 3 μl of the ATR-working solution were added to the test compound and the mixture was incubated for 10 min at 22° C. to allow pre-binding of the test compounds to ATR/ATRIP. Then, 2 μl of a 100 nM solution of tracer A in assay buffer were added to the ATR-working solution. The resulting mixture was incubated for 30 min at 22° C. The measurement of the TR-FRET signal was performed in a standard HTRF-compatible MTP reader instrument (e.g. BMG Pherastar) by recording the fluorescence emissions at 545 nm and 570 nm after excitation at 337-350 nm. The ratio between emission at 570 nm divided by emission at 545 nm was calculated to give the well ratio. The experimental data (well ratios) were normalised by the following way: positive control contained ATR-working solution plus tracer A solution (=0% inhibition), the negative control contained all components except GST-ATR/ATRIP (=100% inhibition). Usually the compounds were tested on the same MTP in 11 different concentrations in the range of 20 μM to 0.1 nM (20 μM, 5.9 μM, 1.7 μM, 0.51 μM, 0.15 μM, 44 nM, 13 nM, 3.8 nM, 1.1 nM, 0.33 nM and 0.1 nM). The dilution series were prepared separately before the assay on the level of the 100 fold concentrated solutions in DMSO by serial 1:3.4 dilutions in duplicate values for each concentration. IC50 values were calculated by a 4 parameter fit using standard software (GraphPad prism or equivalent).

Row | SMILES | IC50 [1] [nM] | IC50 [2] [nM]
1 | Cc1nc(S(C)(=O)=O)ccc1-c1cc(N2CCOC[C@H]2C)nc2c(-c3ccn[nH]3)ncc(C)c12 [Example 4, 5-methyl-4-[2-methyl-6-(methylsulfonyl)pyridin-3-yl]-2-[(3R)-3-methylmorpholin-4-yl]-8-(1H-pyrazol-5-yl)-1,7-naphthyridine] | 333 | 37.3
2 | Cc1cnc(-c2ccn[nH]2)c2nc(N3CCOC[C@H]3C)cc(-c3cnc(Cl)n3C)c12 [Example 5, 4-(2-chloro-1-methyl-1H-imidazol-5-yl)-5-methyl-2-[(3R)-3-methylmorpholin-4-yl]-8-(1H-pyrazol-5-yl)-1,7-naphthyridine] | 85.1 | 5.07
3 | Cc1cnc(-c2ccn[nH]2)c2nc(N3CCOC[C@H]3C)cc(-c3ccc(N4CCNCC4)cc3F)c12 [Example 6, 4-[2-fluoro-4-(piperazin-1-yl)phenyl]-5-methyl-2-[(3R)-3-methylmorpholin-4-yl]-8-(1H-pyrazol-5-yl)-1,7-naphthyridine] | 296 | 14.2
4 | Cc1cnc(-c2ccn[nH]2)c2nc(N3CCOC[C@H]3C)cc(-c3cccc(F)c3F)c12 [Example 7, 4-(2,3-difluorophenyl)-5-methyl-2-[(3R)-3-methylmorpholin-4-yl]-8-(1H-pyrazol-5-yl)-1,7-naphthyridine] | 499 | 8.27
5 | Cc1cnc(-c2ccn[nH]2)c2nc(N3CCOC[C@H]3C)cc(N=S3(=O)CCCC3)c12 [Example 8, N-5-methyl-2-[(3R)-3-methylmorpholin-4-yl]-8-(1H-pyrazol-5-yl)-1,7-naphthyridin-4-yltetrahydro-1H-1λ^4-thiophen-1-imine 1-oxide] | 473 | 35.5
6 | CCS(=O)(CC)=Nc1cc(N2CCOC[C@H]2C)nc2c(-c3ccn[nH]3)ncc(C)c12 [Example 9, 4-[diethyl(oxido)-λ^6-sulfanylidene]amino-5-methyl-2-[(3R)-3-methylmorpholin-4-yl]-8-(1H-pyrazol-5-yl)-1,7-naphthyridine] | 117 | 14.1
7 | Cc1cnc(-c2ccn[nH]2)c2nc(N3CCOC[C@H]3C)cc(N3CCOCC3)c12 [Example 10, 5-methyl-2-[(3R)-3-methylmorpholin-4-yl]-4-(morpholin-4-yl)-8-(1H-pyrazol-5-yl)-1,7-naphthyridine] | 109 | 8.91
8 | Cc1cnc(-c2ccn[nH]2)c2nc(N3CCOC[C@H]3C)cc(N3CCC(CO)CC3)c12 [Example 11, (1-{5-methyl-2-[(3R)-3-methylmorpholin-4-yl]-8-(1H-pyrazol-5-yl)-1,7-naphthyridin-4-yl}piperidin-4-yl)methanol] | 33.2 | 3.8
9 | Cc1cnc(-c2ccn[nH]2)c2nc(N3CCOC[C@H]3C)cc(N3CCN(S(C)(=O)=O)CC3)c12 [Example 12, 5-methyl-2-[(3R)-3-methylmorpholin-4-yl]-4-[4-(methylsulfonyl)piperazin-1-yl]-8-(1H-pyrazol-5-yl)-1,7-naphthyridine] | 440 | 5.49
10 | Cc1cnc(-c2ccn[nH]2)c2nc(N3CCOC[C@H]3C)cc(N(C)CC(C)(C)C)c12 [Example 13, N-(2,2-dimethylpropyl)-N,5-dimethyl-2-[(3R)-3-methylmorpholin-4-yl]-8-(1H-pyrazol-5-yl)-1,7-naphthyridin-4-amine] | 745 | 4.93
11 | COC(=O)c1cc(N2CCOC[C@H]2C)nc2c(-c3ccn[nH]3)ncc(C)c12 [Example 14, methyl 5-methyl-2-[(3R)-3-methylmorpholin-4-yl]-8-(1H-pyrazol-5-yl)-1,7-naphthyridine-4-carboxylate] | 440 | 53
12 | Cc1cnc(-c2ccn[nH]2)c2nc(N3CCOC[C@H]3C)cc(-c3cncn3C)c12 [Example 15, 5-methyl-4-(1-methyl-1H-imidazol-5-yl)-2-[(3R)-3-methylmorpholin-4-yl]-8-(1H-pyrazol-5-yl)-1,7-naphthyridine] | 145 | 5.86
13 | Cc1ncc(-c2cc(N3CCOC[C@H]3C)nc3c(-c4ccn[nH]4)ncc(C)c23)s1 [Example 16, 5-methyl-2-[(3R)-3-methylmorpholin-4-yl]-4-(2-methyl-1,3-thiazol-5-yl)-8-(1H-pyrazol-5-yl)-1,7-naphthyridine] | 33.9 | 14.2
14 | CCOP(C)(=O)c1cc(N2CCOC[C@H]2C)nc2c(-c3ccn[nH]3)ncc(C)c12 (stereo partly drawn) [Example 17, ethyl methyl{5-methyl-2-[(3R)-3-methylmorpholin-4-yl]-8-(1H-pyrazol-5-yl)-1,7-naphthyridin-4-yl}phosphinate] | 112 | 42.2
